According to publication PMC3853373 (Archives of biochemistry and biophysics, 2013):
Several values for one entry are separate records, joined by “and”; a condition that tells them apart may be missing. Identical values can stand only once. Like-named read-outs stand apart in the source and are kept apart here.

Experiments:
[1] = target: T1, human PNMT (hPNMT) (Homo sapiens, UniProt P11086); assay: Determination of inhibition constants and inhibition patterns for hPNMT; type: biochemical; details: pH 8.0, 30 °C; for Ki: read-out: Kis
T1 sequence (P11086 1-282): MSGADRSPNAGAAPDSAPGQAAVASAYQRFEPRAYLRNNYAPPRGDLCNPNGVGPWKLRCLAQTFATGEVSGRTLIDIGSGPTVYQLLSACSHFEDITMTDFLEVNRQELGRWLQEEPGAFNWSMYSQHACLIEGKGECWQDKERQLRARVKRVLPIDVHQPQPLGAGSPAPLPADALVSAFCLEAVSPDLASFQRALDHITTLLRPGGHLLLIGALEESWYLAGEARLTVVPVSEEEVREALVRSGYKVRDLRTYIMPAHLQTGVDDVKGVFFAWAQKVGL

[2] = target: T1, human PNMT (hPNMT); assay: Isothermal titration calorimetry of ligand binding to hPNMT; details: for binding to free hPNMT: no AdoMet or AdoHcy present
[3] = target: T1, human PNMT (hPNMT); assay: hPNMT initial velocity studies; type: biochemical
[4] = target: T1, human PNMT (hPNMT); assay: pH dependence of hPNMT kinetic parameters and of Ki for SK&F 29661; details: pH 6-10, 30 °C; fit to eq 6
[5] = target: T1, human PNMT (hPNMT); details: pH 8.0, 30 °C; ref [30]; cited from earlier work
[6] = varied substrate AdoMet, fixed PEA 100 μM
[7] = varied substrate PEA, fixed AdoMet 5 μM

For `Nc1ncnc2c1ncn2[C@@H]1O[C@H](CSCC[C@H](N)C(=O)O)[C@@H](O)[C@H]1O` [AdoHcy, S-adenosyl-L-homocysteine], the Ki [1, 6] was 0.8 ± 0.04 µM, the Ki [1, 7] was 2.5 ± 0.28 µM and the Kii [1, 7] was 1.0 ± 0.02 µM.
In the case of `NCC(O)c1ccc(O)cc1` (stereo not drawn) [Octopamine, octopamine], the Kd [2] is reported as 3.3 ± 0.1 µM, the “binding to free hPNMT” value ([2]; ITC) is reported as “did not bind” and the Kia ([3]; dissociation constant from eq 1, phosphate buffer pH 8.0, 30 °C) is reported as 2.1 ± 0.2 µM. For the same molecule, the “Km lower than that of PEA” value ([3]; ratio of Km values against PEA) was 20 fold.
For `NCC(O)c1ccccc1` (stereo not drawn) [PEA, phenylethanolamine], the “pKa2 from LogV/K pH profile” value [4] was 8.66 and 8.66 ± 0.03, the “pKa3 from LogV/K pH profile” value [4] was 9.26 and 9.26 ± 0.03 and the Kd [2] was 60 ± 2 µM. The “binding to free hPNMT” value ([2]; ITC) was “did not bind”, the kcat [5] was 0.0473 ± 0.00167 s⁻¹ and the kcat/Ka [5] was “(2.8 ± 0.2) × 10^4 M^−1 min^−1”.
For `CNC[C@H](O)c1ccc(O)c(O)c1` [Epinephrine, epinephrine], the “preference for binding in presence of AdoHcy over AdoMet” value ([2]; ITC) was 5 fold, the Kii [1, 6] was 22 ± 0.8 µM and the Kii [1, 7] was 51 ± 1.0 µM.
With `C[S+](CC[C@H](N)C(=O)[O-])C[C@H]1O[C@@H](n2cnc3c(N)ncnc32)[C@H](O)[C@@H]1O` (stereo partly drawn) [AdoMet, S-adenosyl-L-methionine] the “pKa2 from LogV/K pH profile” value [4] was 7.25, the “pKa3 from LogV/K pH profile” value [4] was 9.15 ± 0.12 and the Kd [2] was 4.6 ± 0.7 µM.
In the case of `NC[C@H](O)c1ccc(O)c(O)c1` [NE, norepinephrine], the Kd [2] is reported as 7.2 ± 0.2 µM and the “binding to free hPNMT” value ([2]; ITC) is reported as “did not bind”.
